Results taken from article PMC3228891 (Journal of medicinal chemistry, 2011).

Assays:
Human H3R = Human H3R (Homo sapiens, UniProt Q9Y5N1); test: Radioligand displacement assay, [3H]-N-α-methylhistamine binding
hH1R = hH1R (Homo sapiens, UniProt P35367); test: Inositol phosphate; type: cell-based; details: for functional character in histamine stimulated InsP accumulation assays: HEK293T cells transiently transfected with hH1R
H1 receptor = details: read-out: Ki H1 receptor (ChEMBLdb); known activity in ChEMBLdb ref 28; cited from earlier work
human H1R = human H1R (Homo sapiens, UniProt P35367); test: Radioligand displacement assay, [3H]-mepyramine binding; details: displacement of [3H]-mepyramine, membranes of HEK293T cells transiently expressing human H1R; mean ± SEM, at least three independent measurements
Sequence of human H1R (P35367 whole entry): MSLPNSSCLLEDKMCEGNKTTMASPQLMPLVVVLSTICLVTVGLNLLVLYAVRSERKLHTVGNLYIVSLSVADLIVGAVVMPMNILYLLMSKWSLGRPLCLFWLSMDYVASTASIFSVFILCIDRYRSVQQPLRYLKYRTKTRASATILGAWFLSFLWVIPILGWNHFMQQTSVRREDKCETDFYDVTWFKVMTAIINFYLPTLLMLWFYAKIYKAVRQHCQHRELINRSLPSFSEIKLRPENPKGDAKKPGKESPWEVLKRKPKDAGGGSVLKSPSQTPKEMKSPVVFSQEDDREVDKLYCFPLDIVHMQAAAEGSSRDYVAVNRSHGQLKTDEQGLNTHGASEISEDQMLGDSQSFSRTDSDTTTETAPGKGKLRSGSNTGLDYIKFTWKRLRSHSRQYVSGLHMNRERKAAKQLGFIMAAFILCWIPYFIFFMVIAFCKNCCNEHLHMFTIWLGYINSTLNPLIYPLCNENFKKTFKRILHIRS

Sequence of hH1R (P35367 whole entry): as above
Sequence of Human H3R (Q9Y5N1 whole entry): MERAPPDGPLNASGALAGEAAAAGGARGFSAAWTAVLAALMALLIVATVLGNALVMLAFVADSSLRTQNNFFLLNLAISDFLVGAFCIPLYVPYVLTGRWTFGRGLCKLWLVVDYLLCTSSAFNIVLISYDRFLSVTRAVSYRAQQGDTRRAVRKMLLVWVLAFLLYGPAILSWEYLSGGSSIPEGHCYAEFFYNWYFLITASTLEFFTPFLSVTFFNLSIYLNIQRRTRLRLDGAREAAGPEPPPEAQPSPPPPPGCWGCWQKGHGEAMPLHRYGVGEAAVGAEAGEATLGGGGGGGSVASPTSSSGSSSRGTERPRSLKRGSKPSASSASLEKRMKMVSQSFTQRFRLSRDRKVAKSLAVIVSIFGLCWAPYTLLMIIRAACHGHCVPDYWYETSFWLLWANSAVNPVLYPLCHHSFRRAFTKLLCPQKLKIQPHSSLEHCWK

Row | SMILES | functional character in histamine stimulated InsP accumulation assays (hH1R) | Ki (H1 receptor) [µM] | further results
1 | c1ccc2c(c1)n(CCN1CCCCC1)c1ncnn21 [compound 15] | inverse agonists | – | H3R affinity (Human H3R): without H3R affinity
2 | CN(C)CCCN1c2ccccc2CCc2ccccc21 [Imipramine] | – | ≤ 10 | –
3 | Cc1ccc(/C(=C\CN2CCCC2)c2ccccn2)cc1 [Triprolidine] | – | ≤ 10 | –
4 | CNCCCOc1cccc2ccccc12 [compound 9] | very weak partial agonist | – | intrinsic activity (hH1R; InsP accumulation, HEK293T hH1R): 0.07
5 | CN1CCN(c2nc(N3CCCC3)c3cnn(C)c3n2)CC1 [compound 4] | – | – | pKi H1R (human H1R): 7.21 ± 0.03
6 | c1cnc2c(c1)cc([C@@H]1CCCO1)n2CCN1CCCCC1 [compound 10] | inverse agonists | – | H3R affinity (Human H3R): without H3R affinity
7 | c1ccc2c(c1)nc1n(CCN3CCCCC3)cnn21 [compound 13] | inverse agonists | – | –
8 | NC1=NCC2c3ccccc3Cc3ccccc3N12 (stereo not drawn) [Epinastine] | – | ≤ 10 | –
9 | c1ccc(Cc2ccccc2OC2CCNCC2)cc1 [compound 3] | – | – | inhibition of histamine-induced effects (hH1R; tested against histamine (0.1 μM), InsP accumulation): completely inhibit
